Test results: patent US10988477B2 (Merck Patent GmbH, priority 2018, dated 2021)
Where two headings read alike, the source gives them in different places.

How the values were obtained:
[1] = target: intracellular GCN2 (phosphorylation of the GCN2 substrate eIF2α) (Homo sapiens, UniProt Q9P2K8); assay: GCN2 cellular inhibition assay (AlphaScreen SureFire P-eIF2α Ser51, borrelidin-treated U2OS cells); type: cell-based
Description: Compounds can be screened for their ability to inhibit intracellular GCN2 using an AlphaScreen assay (Perkin Elmer) to detect phosphorylation of the GCN2 substrate eIF2α in borrelidin-treated cells. U2OS cells are plated at 5,000 cells per well in 384-well white polystyrene plates (Corning 3570) in McCoy's 5 A media (GIBCO 26600-023) supplemented with 10% foetal bovine serum (SAFC 12103C), Penicillin/Streptomycin solution diluted 1:100 (Sigma P0781), and 2 mM L-glutamine (Sigma G7513), and allowed to adhere overnight at 37° C. in 5% CO2. Compounds are then added to the cell media from a final concentration of 40 μM in 4-fold serial dilutions. Borrelidin (FluoroChem M01440) is immediately added to the wells to a final concentration of 10 μM and the cells are incubated for 1 h at 37° C. in 5% CO2. After 1 h of treatment with borrelidin, the media is removed, and the cells are lysed with lysis buffer (TGR BioSciences TGRLB) at ambient temperature.
An AlphaScreen SureFire P-eIF2α (Ser51) assay kit (Perkin Elmer TGREIF2S) was used to measure levels of eIF2α phosphorylated on Serine 51. Anti-phosphorylated eIF2α Ser51 antibody-linked acceptor beads (TGR BioScience 6760617) are added to the cell homogenate (diluted 1:250 into a mixture of activation (TGR BioScience TGRAB) and reaction buffer (TGR BioScience TGREIF2S) prepared immediately before use). The plate is then incubated for 2 h at ambient temperature in the dark. Anti-eIF2α antibody-linked donor beads (TGR BioScience 6760617) were then added (diluted 1:100 in dilution buffer (TGR BioScience TGRDB) prepared immediately before use). The plate is then incubated overnight at ambient temperature in the dark.
Plates are analyzed on an Alpha Technology-compatible PHERAstar FS plate reader (BMG Labtech Version 1.14) to quantify phosphorylated eIF2α Ser51 levels. The percentage inhibition of phosphorylated eIF2α is calculated by comparison to control wells stimulated with borrelidin alone.

GCN2 kinase = GCN2 kinase (Homo sapiens, UniProt Q9P2K8); assay: GCN2 enzyme inhibition assay (Transcreener ADP2 fluorescence polarization); type: biochemical; settings: 280 μM ATP; for IC50: compounds of Formula IV
How it was run: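 ADP formation read by Transcreener FP after a 1 h, 25 °C kinase reaction containing 280 μM ATP, 200 μM (RS)7 substrate and 4 nM GCN2, pH 7.5 Tris buffer. Compounds (0–8 μM final) were added 10 min before ATP. Percent inhibition gave IC50 and apparent Ki via tight-binding fit.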

[2] = compounds of Formula II, biomarker assay, phosphorylated eIF2α Ser51 in borrelidin-treated U2OS cells
[3] = compounds of Formula II, 4 nM GCN2 kinase
[4] = compounds of Formula III, U2OS cells, 10 μM borrelidin, 1 h, read-out: GCN2 Biomarker (IC50)
[5] = compounds of Formula III, 4 nM GCN2 kinase
[6] = Enzyme activity for compounds of Formula IV, Ki(app), 25° C.

intracellular GCN2 (phosphorylation of the GCN2 substrate eIF2α), sequence (Q9P2K8 whole entry): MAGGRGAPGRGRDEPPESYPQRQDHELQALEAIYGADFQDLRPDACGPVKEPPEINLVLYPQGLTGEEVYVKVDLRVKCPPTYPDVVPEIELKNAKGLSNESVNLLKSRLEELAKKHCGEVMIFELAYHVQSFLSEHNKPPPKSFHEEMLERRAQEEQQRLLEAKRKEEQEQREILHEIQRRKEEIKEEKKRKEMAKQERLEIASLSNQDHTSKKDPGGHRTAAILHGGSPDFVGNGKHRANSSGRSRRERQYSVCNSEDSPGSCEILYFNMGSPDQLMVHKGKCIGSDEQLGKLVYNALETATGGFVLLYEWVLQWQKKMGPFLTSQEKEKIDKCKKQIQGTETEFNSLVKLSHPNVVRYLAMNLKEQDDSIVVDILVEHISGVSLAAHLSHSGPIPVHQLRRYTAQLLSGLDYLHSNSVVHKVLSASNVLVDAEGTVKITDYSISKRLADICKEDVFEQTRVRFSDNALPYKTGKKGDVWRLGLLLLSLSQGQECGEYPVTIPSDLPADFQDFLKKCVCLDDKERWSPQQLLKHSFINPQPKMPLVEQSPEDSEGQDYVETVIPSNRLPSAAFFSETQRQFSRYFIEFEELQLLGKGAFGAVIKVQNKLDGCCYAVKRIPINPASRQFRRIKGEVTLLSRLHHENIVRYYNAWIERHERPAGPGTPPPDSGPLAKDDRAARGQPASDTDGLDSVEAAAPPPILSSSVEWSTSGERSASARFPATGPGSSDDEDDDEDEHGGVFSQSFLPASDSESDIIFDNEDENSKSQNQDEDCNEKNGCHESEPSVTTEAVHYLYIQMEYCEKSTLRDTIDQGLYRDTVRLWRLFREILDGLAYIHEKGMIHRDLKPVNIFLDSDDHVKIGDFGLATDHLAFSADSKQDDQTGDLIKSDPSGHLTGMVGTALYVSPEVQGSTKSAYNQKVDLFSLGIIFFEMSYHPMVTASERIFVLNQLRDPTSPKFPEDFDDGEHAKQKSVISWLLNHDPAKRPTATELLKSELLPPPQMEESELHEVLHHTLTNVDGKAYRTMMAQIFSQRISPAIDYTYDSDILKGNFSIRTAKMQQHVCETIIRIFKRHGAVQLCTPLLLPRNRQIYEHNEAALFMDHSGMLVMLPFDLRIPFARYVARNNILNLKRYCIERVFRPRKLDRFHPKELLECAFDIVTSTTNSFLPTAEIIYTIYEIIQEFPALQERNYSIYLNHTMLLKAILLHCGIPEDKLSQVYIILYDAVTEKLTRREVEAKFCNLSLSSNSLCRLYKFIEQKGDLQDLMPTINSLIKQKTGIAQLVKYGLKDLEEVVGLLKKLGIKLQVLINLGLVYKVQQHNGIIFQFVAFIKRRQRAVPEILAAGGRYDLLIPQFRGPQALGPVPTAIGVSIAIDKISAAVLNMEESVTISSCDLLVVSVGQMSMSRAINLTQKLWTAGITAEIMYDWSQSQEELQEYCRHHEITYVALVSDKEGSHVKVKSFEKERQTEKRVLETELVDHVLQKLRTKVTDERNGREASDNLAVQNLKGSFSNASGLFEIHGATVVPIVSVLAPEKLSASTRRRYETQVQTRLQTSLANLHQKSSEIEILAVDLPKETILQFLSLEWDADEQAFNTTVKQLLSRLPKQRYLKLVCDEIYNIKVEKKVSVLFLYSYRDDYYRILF
GCN2 kinase, sequence (Q9P2K8 whole entry): as above

Compound | Ki (GCN2 kinase; [6]) [nM] | also measured
CS(=O)(=O)N1CC2(CCCN(c3ccnc(-c4cnc5ccc(C(F)F)nn45)c3)C2)C1 |  | IC50 [1, 2]: < 500 nM; Ki (GCN2 kinase; [3]): < 10 nM
CC(=O)N1CCN(c2cc(-c3cnn4ccc(C(F)F)nc34)ccn2)CC1 |  | IC50 [1, 4]: 500 to 5000 nM; Ki (GCN2 kinase; [5]): 10 to 1000 nM
CC(=O)N1CCN(c2cc(-c3cnn4ccc(C(F)(F)F)nc34)ccn2)CC1 |  | IC50 [1, 4]: > 5000 nM; Ki (GCN2 kinase; [5]): 10 to 1000 nM
CC1C(CNS(C)(=O)=O)N(C)CCN1c1cc(-c2cnc3ccc(C(F)F)nn23)ncn1 (mixture of isomers) [II-312, N-((4-(6-(6-(Difluoromethyl)imidazo[1,2-b]pyridazin-3-yl)pyrimidin-4-yl)-1,3-dimethylpiperazin-2-yl)methyl)methanesulfonamide] |  | IC50 [1, 2]: < 500 nM; Ki (GCN2 kinase; [3]): < 10 nM
NS(=O)(=O)c1cc2c(s1)CCN(c1ccnc(-c3cnc4cnc(C(F)(F)F)cn34)n1)C2 [IV-715] | 100 to 1000 | 
O=C(Nc1ccncc1)[C@H]1CCCN(c2ccnc(-c3cnc4cnc(C(F)(F)F)cn34)n2)C1 [IV-720] | 100 to 1000 | 
O=C(Nc1cccnc1)[C@H]1CCCN(c2ccnc(-c3cnc4cnc(C(F)(F)F)cn34)n2)C1 [IV-723] | 100 to 1000 | 
CS(=O)(=O)N=S1(=O)CCN(c2ccnc(-c3cnc4cnc(C(F)(F)F)cn34)n2)CC1 [IV-727] | > 1000 | 
Cn1cc(NC(=O)[C@@H]2CCCN(c3ccnc(-c4cnc5cnc(C(F)(F)F)cn45)n3)C2)cn1 [IV-728] | > 1000 | 
N=S1(=O)CCN(c2ccnc(-c3cnc4cnc(C(F)(F)F)cn34)n2)CC1 [IV-729] | > 1000 | 
O=C(O)C1c2sccc2CCN1c1ccnc(-c2cnc3cnc(C(F)(F)F)cn23)n1 (stereo not shown) [IV-731] | > 1000 | 
O=C(N[C@H]1CCCN(c2ccnc(-c3cnc4cnc(C(F)(F)F)cn34)n2)C1)C1CC1 [IV-732] | > 1000 | 
O=C(N[C@H]1CCCN(c2ccnc(-c3cnc4cnc(C(F)(F)F)cn34)n2)C1)c1cccnc1F [IV-734] | > 1000 | 
NS(=O)(=O)c1ccc(C(=O)N[C@H]2CCCN(c3ccnc(-c4cnc5cnc(C(F)(F)F)cn45)n3)C2)o1 [IV-735] | > 1000 | 
O=C(Nc1cccnc1)[C@@H]1CCCN(c2ccnc(-c3cnc4cnc(C(F)(F)F)cn34)n2)C1 [IV-738] | > 1000 | 
Cn1cc(NC(=O)[C@H]2CCCN(c3ccnc(-c4cnc5cnc(C(F)(F)F)cn45)n3)C2)cn1 [IV-739] | > 1000 | 
O=C(Nc1ccccn1)[C@H]1CCCN(c2ccnc(-c3cnc4cnc(C(F)(F)F)cn34)n2)C1 [IV-740] | > 1000 | 
O=C(N[C@H]1CCCN(c2ccnc(-c3cnc4cnc(C(F)(F)F)cn34)n2)C1)c1ccn(C2CC2)n1 [IV-742] | > 1000 | 

Compound | Ki (GCN2 kinase; [6]) [nM] | also measured
O=C(N[C@H]1CCCN(c2ccnc(-c3cnc4cnc(C(F)(F)F)cn34)n2)C1)c1ccc(F)cc1F [IV-744] | > 1000 | 
COCCn1ccc(C(=O)N[C@H]2CCCN(c3ccnc(-c4cnc5cnc(C(F)(F)F)cn45)n3)C2)n1 [IV-745] | > 1000 | 
O=C(N[C@H]1CCCN(c2ccnc(-c3cnc4cnc(C(F)(F)F)cn34)n2)C1)c1ccc(F)c(F)c1 [IV-746] | > 1000 | 
CS(C)(=O)=NCC(=O)N[C@H]1CCCN(c2ccnc(-c3cnc4cnc(C(F)(F)F)cn34)n2)C1 [IV-747] | > 1000 | 
O=C(N[C@H]1CCCN(c2ccnc(-c3cnc4cnc(C(F)(F)F)cn34)n2)C1)c1ccoc1 [IV-748] | > 1000 | 
FC(F)(F)c1cn2c(-c3nccc(N4CCc5sccc5C4)n3)cnc2cn1 [IV-749] | > 1000 | 
CC(C)(C)n1cc(C(=O)N[C@H]2CCCN(c3ccnc(-c4cnc5cnc(C(F)(F)F)cn45)n3)C2)nn1 [IV-750] | > 1000 | 
O=C(N[C@H]1CCCN(c2ccnc(-c3cnc4cnc(C(F)(F)F)cn34)n2)C1)c1c[nH]cn1 [IV-751] | > 1000 | 
Cc1n[nH]cc1[C@H]1C[C@H](C)CN(c2nccc(-c3cnc4cnc(C(F)(F)F)cn34)n2)C1 [IV-755, 3-(2-((3S,5R)-3-methyl-5-(3-methyl-1H-pyrazol-4-yl)piperidin-1-yl)pyrimidin-4-yl)-6-(trifluoromethyl)imidazo[1,2-a]pyrazine] |  | IC50 (GCN2 kinase; 4 nM GCN2 kinase): 10 to 1000 nM
Cc1n[nH]cc1[C@@H]1C[C@@H](C)CN(c2nccc(-c3cnc4cnc(C(F)(F)F)cn34)n2)C1 [IV-756, -(2-((3R,5S)-3-methyl-5-(3-methyl-1H-pyrazol-4-yl)piperidin-1-yl)pyrimidin-4-yl)-6-(trifluoromethyl)imidazo[1,2-a]pyrazine] |  | IC50 (GCN2 kinase; 4 nM GCN2 kinase): 10 to 1000 nM
Cc1n[nH]cc1[C@@H]1C[C@H](C)CN(c2nccc(-c3cnc4cnc(C(F)(F)F)cn34)n2)C1 [IV-759, 3-(2-((3S,5S)-3-methyl-5-(3-methyl-1H-pyrazol-4-yl)piperidin-1-yl)pyrimidin-4-yl)-6-(trifluoromethyl)imidazo[1,2-a]pyrazine] |  | IC50 (GCN2 kinase; 4 nM GCN2 kinase): 10 to 1000 nM
Cc1n[nH]cc1[C@@H]1CN(c2ccnc(-c3cnc4cnc(C(F)(F)F)cn34)n2)C[C@@H](C)O1 [IV-760, (2R,6R)-2-methyl-6-(3-methyl-1H-pyrazol-4-yl)-4-(2-(6-(trifluoromethyl)imidazo[1,2-a]pyrazin-3-yl)pyrimidin-4-yl)morpholine] |  | IC50 (GCN2 kinase; 4 nM GCN2 kinase): 10 to 1000 nM
Cc1n[nH]cc1[C@H]1CN(c2ccnc(-c3cnc4cnc(C(F)(F)F)cn34)n2)C[C@H](C)O1 [IV-761, (2S,6S)-2-methyl-6-(3-methyl-1H-pyrazol-4-yl)-4-(2-(6-(trifluoromethyl)imidazo[1,2-a]pyrazin-3-yl)pyrimidin-4-yl)morpholine] |  | IC50 (GCN2 kinase; 4 nM GCN2 kinase): 10 to 1000 nM
C[C@H]1C[C@H](c2cn[nH]c2)CN(c2ccnc(-c3cnc4cnc(C(F)(F)F)cn34)n2)C1 [IV-768, 3-(4-((3S,5R)-3-methyl-5-(1H-pyrazol-4-yl)piperidin-1-yl)pyrimidin-2-yl)-6-(trifluoromethyl)imidazo[1,2-a]pyrazine] |  | IC50 (GCN2 kinase; 4 nM GCN2 kinase): 10 to 1000 nM
C[C@@H]1C[C@H](N=S(C)(C)=O)CN(c2ccnc(-c3cnc4cnc(Cl)cn34)n2)C1 [IV-773, (((3S,5R)-1-(2-(6-chloroimidazo[1,2-a]pyrazin-3-yl)pyrimidin-4-yl)-5-methylpiperidin-3-yl)imino)dimethyl-16-sulfanone] |  | IC50 (GCN2 kinase; 4 nM GCN2 kinase): 10 to 1000 nM
C[C@H]1[C@@H](c2cn[nH]c2)N(C(=O)C2CC2)[C@@H](C)CN1c1ccnc(-c2cnc3cnc(C(F)(F)F)cn23)n1 [IV-778, cyclopropyl((2R,3S,6S)-3,6-dimethyl-2-(1H-pyrazol-4-yl)-4-(2-(6-(trifluoromethyl)imidazo[1,2-a]pyrazin-3-yl)pyrimidin-4-yl)piperazin-1-yl)methanone] |  | IC50 (GCN2 kinase; 4 nM GCN2 kinase): 10 to 1000 nM
C[C@H]1[C@@H](c2cn[nH]c2)N(C(=O)c2cnoc2)[C@@H](C)CN1c1ccnc(-c2cnc3cnc(C(F)(F)F)cn23)n1 [IV-779, ((2R,3S,6S)-3,6-dimethyl-2-(1H-pyrazol-4-yl)-4-(2-(6-(trifluoromethyl)imidazo[1,2-a]pyrazin-3-yl)pyrimidin-4-yl)piperazin-1-yl)(isoxazol-4-yl)methanone] |  | IC50 (GCN2 kinase; 4 nM GCN2 kinase): 10 to 1000 nM

More lines, main results first:

Ki (GCN2 kinase; [6]) [nM] | Compound | also measured
100 to 1000 | FC(F)(F)c1cn2c(-c3nccc(N4CCOC(c5ccccn5)C4)n3)cnc2cn1 (stereo not shown) [IV-717] | 
100 to 1000 | C[C@H]1CN(c2ccnc(-c3cnc4cnc(C(F)(F)F)cn34)n2)C[C@@H](c2nc(C3CC3)no2)O1 [IV-718] | 
100 to 1000 | FC(F)(F)c1cn2c(-c3nccc(N4CCCC(c5ncccn5)C4)n3)cnc2cn1 (stereo not shown) [IV-719] | 
100 to 1000 | O=C(Nc1cn[nH]c1)[C@H]1CCCN(c2ccnc(-c3cnc4cnc(C(F)(F)F)cn34)n2)C1 [IV-721] | 
100 to 1000 | FC(F)(F)c1cn2c(-c3nccc(N4CCO[C@@H](c5ccccn5)C4)n3)cnc2cn1 [IV-722] | 
> 1000 | O=C(Nc1cn[nH]c1)[C@@H]1CCCN(c2ccnc(-c3cnc4cnc(C(F)(F)F)cn34)n2)C1 [IV-725] | 
> 1000 | N#CC1CN(c2ccnc(-c3cnc4cnc(C(F)(F)F)cn34)n2)CCO1 (stereo not shown) [IV-726] | 
> 1000 | CC1c2ccsc2CCN1c1ccnc(-c2cnc3cnc(C(F)(F)F)cn23)n1 (stereo not shown) [IV-730] | 
> 1000 | N[C@H]1CCCN(c2ccnc(-c3cnc4cnc(C(F)(F)F)cn34)n2)C1 [IV-736] | 
> 1000 | O=C(N[C@H]1CCCN(c2ccnc(-c3cnc4cnc(C(F)(F)F)cn34)n2)C1)c1cc[nH]n1 [IV-737] | 
